The results in this text go back to patent publication US20230114728A1 (Venatorx Pharmaceuticals, Inc., priority 2019, published 2023).

Test [1] addresses T1, E. coli K12 PBP3 (Escherichia coli, UniProt P0AD68).
T1 construct: made in house
Nature of the test: biochemical. It is filed as binding. A digest of the protocol:
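Fluorescence polarization (ex 490/em 520 nm) competition of inhibitors against Bocillin-FL at 0.1 μM, read up to 60 min. Final PBP levels: E. coli PBP3 1.5 μM; A. baumannii PBP2 2.5 μM, PBP3 0.2 μM in Tris pH 8.0/NaCl/glycerol/Tween 20; N. gonorrhoeae PBP2 […] in Hepes pH 8.0/NaCl/glycerol. EC50 = concentration halving PBP-bound Bocillin-FL.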

Test [2] relates to E. coli ATCC 25922. In words: Broth microdilution MIC in CAMHB. The note with it: Escherichia coli, ATCC25922; E. coli ATCC 25922; MHB; read-out: Minimum Inhibitory Concentration, E. coli 25922. The format is cell-based. The gist of the method:
(§1)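 Colonies from cation-adjusted Mueller Hinton agar are grown in broth (3-5 h, 37° C), adjusted by OD600, and added at 2-8×10^5 CFU/mL to 2-fold compound dilutions. After 16-20 h at 37° C, the lowest concentration without growth is taken as MIC.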
(Broth dilution looks for growth in wells or tubes with falling amounts of substance.)

In test [3] the test system is E. coli D22. In words: Broth microdilution MIC in CAMHB. It is filed as cell-based. The note with it: Escherichia coli; E. coli D22 (hyper-permeable); MHB; read-out: Minimum Inhibitory Concentration, E. coli D22. A digest of the protocol: as §1
Test [4] deals with K. pneumoniae SI-117 producing VIM-1. In words: Broth microdilution MIC in CAMHB. It is filed as cell-based. Conditions: Klebsiella pneumoniae, read-out: Minimum Inhibitory Concentration, K. pneumoniae SI-117. The gist of the method:
as §1

Test [5] relates to P. aeruginosa ATCC 35151. Nature of the test: Broth microdilution MIC in CAMHB. The format is cell-based. Conditions: Pseudomonas aeruginosa, ATCC35151; MHB; hyper-permeable strain; read-out: Minimum Inhibitory Concentration, P. aeruginosa ATCC 35151. A digest of the protocol: as §1

≈ marks a conversion by molar mass, not a printed value.

T1 sequence (P0AD68 1-577): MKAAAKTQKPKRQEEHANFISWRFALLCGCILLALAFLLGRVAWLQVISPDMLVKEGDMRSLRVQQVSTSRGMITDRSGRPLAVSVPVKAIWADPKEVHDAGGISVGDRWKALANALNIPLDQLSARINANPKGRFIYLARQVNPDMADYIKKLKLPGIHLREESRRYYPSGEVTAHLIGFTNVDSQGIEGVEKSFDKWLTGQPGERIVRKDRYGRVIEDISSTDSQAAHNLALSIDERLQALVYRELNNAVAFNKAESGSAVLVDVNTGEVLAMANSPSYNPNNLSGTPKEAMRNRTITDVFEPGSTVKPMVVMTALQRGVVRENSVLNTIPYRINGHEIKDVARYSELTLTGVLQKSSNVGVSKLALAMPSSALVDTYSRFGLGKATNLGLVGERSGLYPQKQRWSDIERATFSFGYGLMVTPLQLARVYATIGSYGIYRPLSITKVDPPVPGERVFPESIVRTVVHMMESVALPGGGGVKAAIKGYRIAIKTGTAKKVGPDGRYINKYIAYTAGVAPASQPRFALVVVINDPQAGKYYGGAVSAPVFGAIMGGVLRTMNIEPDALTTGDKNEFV

In turn, `NC(=O)c1ccc(C(NC(=O)N2CCN(CCF)C(=O)C2=O)C(=O)N[C@H]2Cc3cccc(C(=O)O)c3OB2O)cc1O` (stereo partly drawn) [Example 46, (3R)-3-(2-(4-carbamoyl-3-hydroxyphenyl)-2-(4-(2-fluoroethyl)-2,3-dioxopiperazine-1-carboxamido)acetamido)-2-hydroxy-3,4-dihydro-2H-benzo[e][1,2]oxaborinine-8-carboxylic acid] showed an EC50 in test [1] below 30 µM. For the same compound, the MIC is 32 to 64 µg/mL (≈ 54.7 to 109 µM) in test [2], below 0.25 µg/mL in test [3], 32 to 64 µg/mL (≈ 54.7 to 109 µM) in test [4] and below 0.25 µg/mL in test [5].
As to `NCCCN1CCN(C(=O)NC(C(=O)N[C@H]2Cc3cccc(C(=O)O)c3OB2O)c2ccc(C(N)=O)c(O)c2)C(=O)C1=O` (stereo partly drawn) [Example 47, (3R)-3-(2-(4-(3-aminopropyl)-2,3-dioxopiperazine-1-carboxamido)-2-(4-carbamoyl-3-hydroxyphenyl)acetamido)-2-hydroxy-3,4-dihydro-2H-benzo[e][1,2]oxaborinine-8-carboxylic acid], the EC50 in test [1] lay within 30 to 500 µM. The MIC in test [2] was above 128 µg/mL; in test [3], 2 to 4 µg/mL (≈ 3.35 to 6.71 µM); in test [4] it was above 128 µg/mL; in test [5], below 0.25 µg/mL.
For `CCN1CCN(C(=O)NC(C(=O)N[C@H]2Cc3cccc(C(=O)O)c3OB2O)c2ccc(C(=O)O)c(OC)c2)C(=O)C1=O` (stereo partly drawn) [Example 48, (3R)-3-(2-(4-carboxy-3-methoxyphenyl)-2-(4-ethyl-2,3-dioxopiperazine-1-carboxamido)acetamido)-2-hydroxy-3,4-dihydro-2H-benzo[e][1,2]oxaborinine-8-carboxylic acid], the EC50 in test [1] is below 30 µM. The MIC in test [2] is 32 to 64 µg/mL (≈ 55 to 110 µM); in test [3] it was below 0.25 µg/mL; in test [4], above 128 µg/mL; in test [5], 0.5 to 1 µg/mL (≈ 0.859 to 1.72 µM).
For `O=C(Nc1ccccc1)NC(C(=O)N[C@H]1Cc2ccc(F)c(C(=O)O)c2OB1O)c1ncc(O)cc1F` (stereo partly drawn) [Example 49, (3R)-7-fluoro-3-(2-(3-fluoro-5-hydroxypyridin-2-yl)-2-(3-phenylureido)acetamido)-2-hydroxy-3,4-dihydro-2H-benzo[e][1,2]oxaborinine-8-carboxylic acid], in that order: 30 to 500 µM, above 128 µg/mL, 8 to 16 µg/mL (≈ 15.6 to 31.2 µM), above 128 µg/mL and 2 to 4 µg/mL (≈ 3.9 to 7.81 µM).
Take `CCN1CCN(C(=O)NC(C(=O)N[C@H]2Cc3cccc(C(=O)O)c3OB2O)c2ccc(N)c(F)c2)C(=O)C1=O` (stereo partly drawn) [Example 50, (3R)-3-(2-(4-amino-3-fluorophenyl)-2-(4-ethyl-2,3-dioxopiperazine-1-carboxamido)acetamido)-2-hydroxy-3,4-dihydro-2H-benzo[e][1,2]oxaborinine-8-carboxylic acid]: the EC50 in test [1] is below 30 µM. Besides, the MIC is 32 to 64 µg/mL (≈ 59.1 to 118 µM) in test [2], 2 to 4 µg/mL (≈ 3.69 to 7.39 µM) in test [3], above 128 µg/mL in test [4] and 0.5 to 1 µg/mL (≈ 0.924 to 1.85 µM) in test [5].
Compound `N=C(N)NCCN1CCN(C(=O)NC(C(=O)N[C@H]2Cc3ccc(F)c(C(=O)O)c3OB2O)c2ncc(O)cc2F)C(=O)C1=O` (stereo partly drawn) [Example 51, (3R)-7-fluoro-3-(2-(3-fluoro-5-hydroxypyridin-2-yl)-2-(4-(2-guanidinoethyl)-2,3-dioxopiperazine-1-carboxamido)acetamido)-2-hydroxy-3,4-dihydro-2H-benzo[e][1,2]oxaborinine-8-carboxylic acid] registered an EC50 in test [1] of 30 to 500 µM. The MIC in test [2] fell in the range of 32 to 64 µg/mL (≈ 51.8 to 104 µM); in test [3] it was 8 to 16 µg/mL (≈ 12.9 to 25.9 µM); in test [4], 32 to 64 µg/mL (≈ 51.8 to 104 µM); in test [5], 0.5 to 1 µg/mL (≈ 0.809 to 1.62 µM).
`N=C(N)NC(C(=O)N[C@H]1Cc2ccc(F)c(C(=O)O)c2OB1O)c1ncc(O)cc1F` (stereo partly drawn) [Example 52, (3R)-7-fluoro-3-(2-(3-fluoro-5-hydroxypyridin-2-yl)-2-guanidinoacetamido)-2-hydroxy-3,4-dihydro-2H-benzo[e][1,2]oxaborinine-8-carboxylic acid] yielded an EC50 in test [1] above 500 µM. For the same compound, the MIC in test [2], in test [3], in test [4] and in test [5] was above 128 µg/mL throughout.
The compound `CCN1CCN(C(=O)NC(C(=O)N[C@H]2Cc3ccc(S)c(C(=O)O)c3OB2O)c2csc(N)n2)C(=O)C1=O` (stereo partly drawn) [Example 54, (3R)-3-(2-(2-aminothiazol-4-yl)-2-(4-ethyl-2,3-dioxopiperazine-1-carboxamido)acetamido)-2-hydroxy-7-mercapto-3,4-dihydro-2H-benzo[e][1,2]oxaborinine-8-carboxylic acid] yielded an EC50 in test [1] of 30 to 500 µM. The MIC in test [2] was above 128 µg/mL; in test [3] it was 32 to 64 µg/mL (≈ 56.9 to 114 µM); in test [4], above 128 µg/mL; in test [5], 8 to 16 µg/mL (≈ 14.2 to 28.4 µM).
Regarding `CCN1CCN(C(=O)NC(C(=O)N[C@H]2Cc3ccc(SCc4ccc(O)cc4)c(C(=O)O)c3OB2O)c2csc(N)n2)C(=O)C1=O` (stereo partly drawn) [Example 55, (3R)-3-(2-(2-aminothiazol-4-yl)-2-(4-ethyl-2,3-dioxopiperazine-1-carboxamido)acetamido)-2-hydroxy-7-((4-hydroxybenzyl)thio)-3,4-dihydro-2H-benzo[e][1,2]oxaborinine-8-carboxylic acid], the EC50 in test [1] was in the range of 30 to 500 µM. Also, the MIC in test [2] was 32 to 64 µg/mL (≈ 47.9 to 95.7 µM); in test [3], 8 to 16 µg/mL (≈ 12 to 23.9 µM); in test [4], above 128 µg/mL; in test [5], 0.5 to 1 µg/mL (≈ 0.748 to 1.5 µM).
For `CCN1CCN(C(=O)NC(C(=O)N[C@H]2Cc3ccc(C=O)c(C(=O)O)c3OB2O)c2csc(N)n2)C(=O)C1=O` (stereo partly drawn) [Example 57, (3R)-3-(2-(2-aminothiazol-4-yl)-2-(4-ethyl-2,3-dioxopiperazine-1-carboxamido)acetamido)-7-formyl-2-hydroxy-3,4-dihydro-2H-benzo[e][1,2]oxaborinine-8-carboxylic acid], in that order: 30 to 500 µM, 32 to 64 µg/mL (≈ 57.3 to 115 µM), 8 to 16 µg/mL (≈ 14.3 to 28.7 µM), above 128 µg/mL and 2 to 4 µg/mL (≈ 3.58 to 7.16 µM).
`CCN1CCN(C(=O)NC(C(=O)N[C@H]2Cc3ccc(CO)c(C(=O)O)c3OB2O)c2csc(N)n2)C(O)C1=O` (stereo partly drawn) [Example 58, (3R)-3-(2-(2-aminothiazol-4-yl)-2-(4-ethyl-2-hydroxy-3-oxopiperazine-1-carboxamido)acetamido)-2-hydroxy-7-(hydroxymethyl)-3,4-dihydro-2H-benzo[el][1,2]oxaborinine-8-carboxylic acid] registered a half-maximal effective concentration (EC50) in test [1] of 30 to 500 µM. Moreover, the MIC was above 128 µg/mL in test [2], above 128 µg/mL in test [3], above 128 µg/mL in test [4] and 8 to 16 µg/mL (≈ 14.2 to 28.5 µM) in test [5].
Regarding `CCN1CCN(C(=O)NC(C(=O)N[C@H]2Cc3ccc(O[C@@H]4CN[C@H](C(=O)N(C)C)C4)c(C(=O)O)c3OB2O)c2ccccc2)C(=O)C1=O` (stereo partly drawn) [Example 59, (3R)-7-(((3S,5S)-5-(dimethylcarbamoyl)pyrrolidin-3-yl)oxy)-3-(2-(4-ethyl-2,3-dioxopiperazine-1-carboxamido)-2-phenylacetamido)-2-hydroxy-3,4-dihydro-2H-benzo[e][1,2]oxaborinine-8-carboxylic acid], the EC50 in test [1] was in the range of 30 to 500 µM. Also, the MIC is above 128 µg/mL in test [2], 32 to 64 µg/mL (≈ 48.2 to 96.3 µM) in test [3], above 128 µg/mL in test [4] and 0.5 to 1 µg/mL (≈ 0.752 to 1.5 µM) in test [5].
On to `CCN1CCN(C(=O)NC(C(=O)N[C@H]2Cc3ccc(OCCN)c(C(=O)O)c3OB2O)c2ccccc2)C(=O)C1=O` (stereo partly drawn) [Example 60, (3R)-7-(2-aminoethoxy)-3-(2-(4-ethyl-2,3-dioxopiperazine-1-carboxamido)-2-phenylacetamido)-2-hydroxy-3,4-dihydro-2H-benzo[e][1,2]oxaborinine-8-carboxylic acid], for which the EC50 in test [1] was 30 to 500 µM. Besides, the MIC in test [2] was above 128 µg/mL; in test [3], 32 to 64 µg/mL (≈ 56.4 to 113 µM); in test [4] it was above 128 µg/mL; in test [5], 2 to 4 µg/mL (≈ 3.53 to 7.05 µM).
In test [1], `CCN1CCN(C(=O)NC(C(=O)N[C@H]2Cc3cccc(C(=O)O)c3OB2O)c2cccc(O)c2)C(=O)C1=O` (stereo partly drawn) [Example 68, (3R)-3-(2-(4-ethyl-2,3-dioxopiperazine-1-carboxamido)-2-(3-hydroxyphenyl)acetamido)-2-hydroxy-3,4-dihydro-2H-benzo[e][1,2]oxaborinine-8-carboxylic acid] came in with an EC50 of 30 to 500 µM. In addition, the MIC fell in the range of 32 to 64 µg/mL (≈ 61 to 122 µM) in test [2], 2 to 4 µg/mL (≈ 3.81 to 7.63 µM) in test [3], 32 to 64 µg/mL (≈ 61 to 122 µM) in test [4] and 0.5 to 1 µg/mL (≈ 0.954 to 1.91 µM) in test [5].
With `CCN1CCN(C(=O)NC(C(=O)N[C@H]2Cc3cccc(C(=O)O)c3OB2O)c2ccc(O)cc2O)C(=O)C1=O` (stereo partly drawn) [Example 69, (3R)-3-(2-(2,4-dihydroxyphenyl)-2-(4-ethyl-2,3-dioxopiperazine-1-carboxamido)acetamido)-2-hydroxy-3,4-dihydro-2H-benzo[e][1,2]oxaborinine-8-carboxylic acid], the EC50 in test [1] is below 30 µM. Besides, the MIC in test [2] lay in the range of 32 to 64 µg/mL (≈ 59.2 to 118 µM); in test [3], 2 to 4 µg/mL (≈ 3.7 to 7.4 µM); in test [4], 32 to 64 µg/mL (≈ 59.2 to 118 µM); in test [5] it was 8 to 16 µg/mL (≈ 14.8 to 29.6 µM).

Broadly, the EC50 is the concentration needed to bring the measured effect to its halfway point. Low readings indicate an effect from little substance, high ones a need for much substance.
